Data as given in publication PMC6351562, “Structure, function, and inhibition of drug reactivating human gut microbial β-glucuronidases” (Scientific Reports, 2019).
Where “and” joins values, the source holds several entries; their conditions need not be identical. Equal values may be shown once.

Key:
Type in all cases: biochemical
[1] = target: Clostridium perfringens GUS (CpGUS) (Clostridium perfringens, UniProt Q8VNV4); conditions: pH 6.5; 37 °C
[2] = target: T1, Bacteroides dorei GUS (BdGUS) (Phocaeicola dorei, UniProt I9FNR0); assay: In vitro DCF-G processing assay (UPLC); conditions: DCF-G as substrate, 400 µM; pH 6.0; 37 °C
T1 sequence (I9FNR0 21-875): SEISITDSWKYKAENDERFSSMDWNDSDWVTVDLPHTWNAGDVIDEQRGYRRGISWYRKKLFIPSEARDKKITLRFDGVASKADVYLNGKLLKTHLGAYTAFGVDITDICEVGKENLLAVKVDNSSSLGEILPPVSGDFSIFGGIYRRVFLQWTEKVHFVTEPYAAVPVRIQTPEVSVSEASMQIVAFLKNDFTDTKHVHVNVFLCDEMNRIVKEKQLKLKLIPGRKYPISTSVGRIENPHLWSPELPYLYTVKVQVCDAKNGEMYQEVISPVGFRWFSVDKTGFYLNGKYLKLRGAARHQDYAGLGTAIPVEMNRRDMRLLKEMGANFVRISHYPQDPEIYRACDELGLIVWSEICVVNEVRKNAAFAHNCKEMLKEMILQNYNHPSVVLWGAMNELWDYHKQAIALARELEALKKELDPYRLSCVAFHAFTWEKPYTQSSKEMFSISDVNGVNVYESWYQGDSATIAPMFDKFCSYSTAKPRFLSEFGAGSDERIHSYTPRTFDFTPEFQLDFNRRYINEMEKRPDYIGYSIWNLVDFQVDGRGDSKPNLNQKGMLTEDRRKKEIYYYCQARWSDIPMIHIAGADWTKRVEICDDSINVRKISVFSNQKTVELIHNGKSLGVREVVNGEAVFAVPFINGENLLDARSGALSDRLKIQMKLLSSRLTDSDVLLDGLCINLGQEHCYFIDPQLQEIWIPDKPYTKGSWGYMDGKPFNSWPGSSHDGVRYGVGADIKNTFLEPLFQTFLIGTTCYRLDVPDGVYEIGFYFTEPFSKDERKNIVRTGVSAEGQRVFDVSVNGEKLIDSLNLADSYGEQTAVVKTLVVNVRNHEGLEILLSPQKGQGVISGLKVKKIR

[3] = target: T2, Lactobacillus rhamnosus GUS (LrGUS) (Lacticaseibacillus rhamnosus, UniProt A0A2A5L2J1); assay: In vitro DCF-G processing assay (UPLC); conditions: DCF-G as substrate, 400 µM; pH 4.5; 37 °C
T2 sequence (A0A2A5L2J1 1-603): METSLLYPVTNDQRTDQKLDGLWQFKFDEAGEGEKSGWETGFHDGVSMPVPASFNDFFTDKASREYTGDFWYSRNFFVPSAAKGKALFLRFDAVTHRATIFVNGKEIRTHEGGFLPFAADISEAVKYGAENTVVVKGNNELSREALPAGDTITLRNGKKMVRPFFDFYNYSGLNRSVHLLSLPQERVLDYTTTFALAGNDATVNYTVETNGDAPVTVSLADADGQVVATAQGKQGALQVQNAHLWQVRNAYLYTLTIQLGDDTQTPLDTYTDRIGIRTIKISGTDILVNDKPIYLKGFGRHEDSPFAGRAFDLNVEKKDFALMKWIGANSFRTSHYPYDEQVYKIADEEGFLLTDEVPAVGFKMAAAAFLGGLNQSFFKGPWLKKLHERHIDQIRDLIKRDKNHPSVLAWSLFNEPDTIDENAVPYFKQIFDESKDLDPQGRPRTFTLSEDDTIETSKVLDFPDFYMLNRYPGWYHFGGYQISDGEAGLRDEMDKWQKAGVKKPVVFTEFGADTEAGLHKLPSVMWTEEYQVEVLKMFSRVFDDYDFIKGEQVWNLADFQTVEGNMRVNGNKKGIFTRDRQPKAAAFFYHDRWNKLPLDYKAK

[4] = target: T3, Bacteroides uniformis GUS (BuGUS) (Bacteroides uniformis, UniProt A0A078SUX9); assay: In vitro DCF-G processing assay (UPLC); conditions: DCF-G as substrate, 400 µM; pH 5.5; 37 °C
T3 sequence (A0A078SUX9 32-886): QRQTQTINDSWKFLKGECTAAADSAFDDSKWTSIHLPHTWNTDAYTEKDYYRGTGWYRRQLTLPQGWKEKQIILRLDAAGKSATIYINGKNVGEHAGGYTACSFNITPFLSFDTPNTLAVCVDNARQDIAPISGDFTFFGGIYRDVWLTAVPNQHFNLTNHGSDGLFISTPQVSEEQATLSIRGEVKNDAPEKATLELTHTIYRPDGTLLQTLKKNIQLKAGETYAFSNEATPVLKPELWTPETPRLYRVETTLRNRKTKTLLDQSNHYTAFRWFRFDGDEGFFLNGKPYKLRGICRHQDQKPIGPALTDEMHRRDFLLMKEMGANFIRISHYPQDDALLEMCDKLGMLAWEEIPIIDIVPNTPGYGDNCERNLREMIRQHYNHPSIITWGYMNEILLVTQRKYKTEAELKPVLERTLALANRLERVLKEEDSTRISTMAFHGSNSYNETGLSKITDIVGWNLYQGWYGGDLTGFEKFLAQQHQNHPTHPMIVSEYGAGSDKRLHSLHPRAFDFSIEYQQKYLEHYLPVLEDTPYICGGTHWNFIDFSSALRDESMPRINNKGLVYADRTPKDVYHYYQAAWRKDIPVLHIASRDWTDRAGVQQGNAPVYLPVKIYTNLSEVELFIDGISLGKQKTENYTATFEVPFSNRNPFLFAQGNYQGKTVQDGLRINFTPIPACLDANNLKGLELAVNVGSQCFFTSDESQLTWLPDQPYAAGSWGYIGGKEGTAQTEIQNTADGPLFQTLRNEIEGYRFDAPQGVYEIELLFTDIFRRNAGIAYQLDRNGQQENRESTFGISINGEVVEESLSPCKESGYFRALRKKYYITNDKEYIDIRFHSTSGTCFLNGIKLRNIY

O=C(Cc1ccccc1Nc1c(Cl)cccc1Cl)O[C@@H]1O[C@H](C(=O)O)[C@@H](O)[C@H](O)[C@H]1O [DCF-G, Diclofenac acyl β-D-glucuronide]
Apparent kcat [1]: 61.5 ± 0.6 s⁻¹
Apparent kcat [2]: 9.8 ± 0.6 s⁻¹
Apparent kcat [3]: 10 s⁻¹ and 10 ± 1 s⁻¹
Apparent kcat [4]: 10 ± 1 s⁻¹
